The values below come from patent publication US20040242886A1, “Monocyclic diazodioxide based Bcl-2 protein antagonists related applications” (priority 2003, published 2004).

Data set [1] has as its system HL60, human leukemic cells expressing high Bcl-2 and low Bcl-XL levels. Put plainly: Acute cytotoxicity (apoptotic activity), Alamar Blue viability, HL-60 cells. It is filed as cell-based. The method, then: (§1) The biological activity of the compounds provided herein were assessed in cellular system by the method similar to the one described by Amundson et al. (Amundson, S. A. et al, Cancer Research 2000, 60, 6101-6110), which is incorporated herein by reference in its entirety. The compounds were tested for acute cytotoxicity (apoptotic activity) using two human cancer cell lines expressing high levels of either Bcl-2 or BCl-XL. HL60, human leukemic cells expressing high Bcl-2 and low BCl-XL levels, and A549 human lung cells expressing low Bcl-2 and high BCl-XL levels, were incubated with the compounds at concentrations between 0.5 and 1000 μg/mL for 4 hours at 37° C., 5% CO2. The number of viable cells were measured by mitochondrial transformation of Alamar Blue to a fluorescent dye. LC50 values for each test compound and controls are provided in the individual examples that follow.
(§2) The compounds provided herein were tested for acute cytoxicity (apoptotic activity) using two human cancer cell lines expressing high levels of either Bcl-2 or BCl-XL. HL-60 cells expressing high Bcl-2 and low Bcl-XL levels, and A549 human lung cells expressing low Bcl-2 and high Bcl-XL levels were incubated with the compounds provided herein at concentrations between 0.5 and 1000 μg/mL for 4 hours at 37° C., 5% CO2. The number of viable cells were measured by mitochondrial transformation of Alamar Blue to a fluorescent dye. As negative controls, the compounds were tested against the cell lines with low levels of Bcl-2 expression, viz., MDA-453 cells. LC50 values for each compound and controls were determined.
On the technique in general: Alamar Blue is a resazurin reagent that responds to reducing activity.

The test system of data set [2] is A549 human lung cells expressing low Bcl-2 and high Bcl-XL levels. The data set can be described thus: Acute cytotoxicity (apoptotic activity), Alamar Blue viability, A549 cells. In kind it is cell-based. As to the method: as §1, §2
Where [3] appears, read: Homo sapiens, HL-60; 4 hours at 37° C.; read-out: LC50 value in HL-60 cell lines.
The mark [4] stands for this setting: Homo sapiens, A549; 4 hours at 37° C.; read-out: LC50 value in A549 cell lines.
The mark [5] stands for this setting: Homo sapiens, HL-60, 4 h; read-out: LC 50 (μM) HL-60.
[6] abbreviates: Homo sapiens, A549, 4 h; read-out: LC 50 (μM) A549.

Like-named read-outs stand apart in the source and are kept apart here.

`O=S(=O)(c1ccccc1)c1ccc(S(=O)(=O)c2ccccc2)[n+]([O-])n1` [Example 1, 3,6-bis(benzenesulfonyl)pyridazine-1-oxide]: the figures for the CC50 in data set [1] (setting [3]) and in data set [2] (setting [4]) were 20.5 µM and 268 µM, respectively.
As for `[O-][n+]1nc(Oc2ccccc2)ccc1Oc1ccccc1` [Example 2, 3,6-diphenoxvpyridazine-1-oxide], the CC50 in data set [1] (4 hours at 37° C.; read-out: LC50 value in HL-60 cell lines) and in data set [2] (4 hours at 37° C.; read-out: LC50 value in A549 cell lines) was greater than 500 µM in each case.
As for `O=S(=O)(c1ccc(S(=O)(=O)C2CCCCC2)[n+]([O-])n1)C1CCCCC1` [Example 3, 3,6-bis-cyclohexanesulfonyl-pyridazine-1-oxide], the CC50 worked out at 32.3 µM in data set [1] (setting [3]) and 192 µM in data set [2] (setting [4]).
`O=S(=O)(c1ccc(Cl)n[n+]1[O-])C1CCCCC1` [Example 4, 3-chloro-6-cyclohexanesulfonyl-pyridazine-1-oxide]: the CC50 amounted to 20.2 µM in data set [1] (setting [3]) and 188 µM in data set [2] (setting [4]).
Consider `O=S(=O)(c1ccccc1)c1ccc(S(=O)(=O)C2CCCCC2)[n+]([O-])n1` [Example 5, 3-benzenesulfonyl-6-cyclohexanesulfonyl-pyridazine-1-oxide], for which the CC50 in data set [1] (setting [3]) worked out at 32.9 µM; in data set [2] (setting [4]), 279 µM.
As to `Clc1ccc(Cl)nn1` [compound 1], the CC50 in data set [1] (setting [5]) and in data set [2] (setting [6]) was greater than 200 µM in each case.
In the case of `[O-][n+]1nc(Cl)ccc1Cl` [compound 2], the results for the CC50 in data set [1] (setting [5]) and in data set [2] (setting [6]) were less than 50 µM and greater than 200 µM, respectively.
Taken in the same sequence, the figures for `COc1ccc(Cl)[n+]([O-])n1` [compound 3] were greater than 200 µM and greater than 200 µM.
In the case of `[O-][n+]1nc(Oc2ccccc2)ccc1Oc1ccccc1` [compound 4], the CC50 in data set [1] (setting [5]) and in data set [2] (setting [6]) was greater than 200 µM each time.
On to `[O-][n+]1nc(Sc2ccccc2)ccc1Sc1ccccc1` [compound 5], for which, in data set [1] (setting [5]), the CC50 is greater than 200 µM.
On to `[O-][n+]1nc(Sc2ccccn2)ccc1Sc1ccccn1` [compound 7, reference compound], for which the CC50 in data set [1] (setting [5]) and in data set [2] (setting [6]) was greater than 200 µM in each case.
`O=[N+]([O-])c1ccc(Sc2ccc(Sc3ccc([N+](=O)[O-])cc3)nn2)cc1` [compound 9]: the CC50 is greater than 200 µM in data set [1] (Homo sapiens, HL-60, 4 h, read-out: LC 50 (μM) HL-60) and greater than 200 µM in data set [2] (Homo sapiens, A549, 4 h, read-out: LC 50 (μM) A549).
Take `COc1ccc(Sc2ccc(Sc3ccc(OC)cc3)[n+]([O-])n2)cc1` [compound 10]: the CC50 in data set [1] (setting [5]) and in data set [2] (setting [6]) was greater than 200 µM throughout.
For `CCS(=O)(=O)c1ccc(S(=O)(=O)CC)[n+]([O-])n1` [compound 12], the CC50 in data set [1] (setting [5]) and in data set [2] (setting [6]) was 50 to 200 µM in each case.
On to `O=S(=O)(c1ccc(S(=O)(=O)C2CCCC2)[n+]([O-])n1)C1CCCC1` [compound 13], for which the CC50 is less than 50 µM in data set [1] (setting [5]) and greater than 200 µM in data set [2] (setting [6]).
On to `O=S(=O)(Cc1ccccc1)c1ccc(S(=O)(=O)Cc2ccccc2)[n+]([O-])n1` [compound 14], for which the CC50 in data set [1] (setting [5]) and in data set [2] (setting [6]) was greater than 200 µM throughout.
As for `Cc1cc(Cl)[n+]([O-])nc1Cl` [compound 17], the CC50 in data set [1] (setting [5]) and in data set [2] (setting [6]) was greater than 200 µM each time.
As to `Cc1cccc(S(=O)(=O)c2ccc(S(=O)(=O)c3cccc(C)c3)[n+]([O-])n2)c1` [compound 18], the CC50 in data set [1] (setting [5]) and in data set [2] (setting [6]) was greater than 200 µM in each case.
Turning to `Cc1ccccc1S(=O)(=O)c1ccc(S(=O)(=O)c2ccccc2C)[n+]([O-])n1` [compound 19], the CC50 in data set [1] (setting [5]) was 50 to 200 µM; in data set [2] (setting [6]) it was greater than 200 µM.
Regarding `O=S(=O)(c1ccc(S(=O)(=O)C2CCCCC2)[n+]([O-])n1)C1CCCCC1` [compound 20], the CC50 in data set [1] (setting [5]) was less than 50 µM; in data set [2] (setting [6]), greater than 200 µM.
As to `COc1cccc(S(=O)(=O)c2ccc(S(=O)(=O)c3cccc(OC)c3)[n+]([O-])n2)c1` [compound 21], the CC50 in data set [1] (setting [5]) and in data set [2] (setting [6]) was greater than 200 µM throughout.
Consider `COc1ccccc1S(=O)(=O)c1ccc(S(=O)(=O)c2ccccc2OC)[n+]([O-])n1` [compound 22], for which the CC50 in data set [1] (setting [5]) is less than 50 µM; in data set [2] (setting [6]), greater than 200 µM.
For `Cc1cc(Cl)n[n+]([O-])c1Cl` [compound 23], in that order: greater than 200 µM and greater than 200 µM.
On to `CCCCS(=O)(=O)c1ccc(S(=O)(=O)CCCC)[n+]([O-])n1` [compound 24], for which the CC50 in data set [1] (setting [5]) is 50 to 200 µM; in data set [2] (setting [6]) it was greater than 200 µM.
With `CC(C)(C)S(=O)(=O)c1ccc(S(=O)(=O)C(C)(C)C)[n+]([O-])n1` [compound 25], the CC50 in data set [1] (setting [5]) is 50 to 200 µM; in data set [2] (setting [6]), greater than 200 µM.
`[O-][n+]1nc(Cl)ccc1SC1CCCCC1` [compound 26]: the CC50 in data set [1] (setting [5]) and in data set [2] (setting [6]) was greater than 200 µM throughout.
In the case of `O=S(=O)(c1ccc(Cl)n[n+]1[O-])C1CCCCC1` [compound 28], the CC50 in data set [1] (setting [5]) is less than 50 µM; in data set [2] (setting [6]), greater than 200 µM.
Consider `[O-][n+]1ccccc1Cl` [compound 29], for which the CC50 in data set [1] (setting [5]) and in data set [2] (setting [6]) was greater than 200 µM each time.
Turning to `O=S(=O)(c1ccc(Sc2ccccc2)n[n+]1[O-])C1CCCCC1` [compound 30], the CC50 in data set [1] (setting [5]) and in data set [2] (setting [6]) was greater than 200 µM throughout.
For the compound `CCOc1ccc(S(=O)(=O)C2CCCCC2)[n+]([O-])n1` [compound 31], the CC50 in data set [1] (setting [5]) and in data set [2] (setting [6]) was greater than 200 µM in each case.
As to `[O-][n+]1nc(Cl)c2ccccc2c1Cl` [compound 33], the CC50 in data set [1] (setting [5]) and in data set [2] (setting [6]) was 50 to 200 µM in each case.
On to `O=S(=O)(c1ccccc1)c1ccc(S(=O)(=O)C2CCCCC2)[n+]([O-])n1` [compound 34], for which the figures for the CC50 in data set [1] (setting [5]) and in data set [2] (setting [6]) were less than 50 µM and greater than 200 µM, respectively.
Take `[O-][n+]1cc(Cl)ccc1Cl` [compound 35]: the CC50 in data set [1] (setting [5]) and in data set [2] (setting [6]) was greater than 200 µM in each case.
Take `CCS(=O)(=O)c1ccc(S(=O)(=O)C2CCCCC2)[n+]([O-])n1` [compound 36]: the CC50 in data set [1] (setting [5]) is less than 50 µM; in data set [2] (setting [6]) it was 50 to 200 µM.
Taken in the same sequence, the figures for `O=S(=O)(c1ccc(Cl)c[n+]1[O-])C1CCCCC1` [compound 37] were greater than 200 µM and greater than 200 µM.
As to `CCSc1ccc(S(=O)(=O)C2CCCCC2)n[n+]1[O-]` [compound 38], the CC50 in data set [1] (setting [5]) and in data set [2] (setting [6]) was greater than 200 µM in each case.
For `COc1ccccc1S(=O)(=O)c1ccc(S(=O)(=O)C2CCCCC2)[n+]([O-])n1` [compound 39], the CC50 in data set [1] (setting [5]) was less than 50 µM; in data set [2] (setting [6]) it was 50 to 200 µM.
`O=S(=O)(c1ccccc1)c1ccc(Cl)n[n+]1[O-]` [compound 40]: the CC50 was less than 50 µM in data set [1] (setting [5]) and greater than 200 µM in data set [2] (setting [6]).
Taken in the same sequence, the figures for `O=S(=O)(c1ccccc1)c1ccc(S(=O)(=O)C2CCCCC2)n[n+]1[O-]` [compound 41] were less than 50 µM and greater than 200 µM.
For `O=S(=O)(c1ccc(S(=O)(=O)C2CCCCC2)[n+]([O-])n1)c1ccccc1Cl` [compound 42], in that order: less than 50 µM and 50 to 200 µM.
For `COC(=O)c1ccccc1S(=O)(=O)c1ccc(S(=O)(=O)C2CCCCC2)[n+]([O-])n1` [compound 43], the CC50 in data set [1] (setting [5]) was less than 50 µM; in data set [2] (setting [6]) it was greater than 200 µM.
As for `O=S(=O)(c1ccccc1)c1n[n+]([O-])c(O)c2ccccc12` [compound 44], the CC50 in data set [1] (setting [5]) and in data set [2] (setting [6]) was greater than 200 µM each time.
As to `CCS(=O)(=O)c1n[n+]([O-])c(OC(=O)c2cccc(Cl)c2)c2ccccc12` [compound 45], the CC50 in data set [1] (setting [5]) and in data set [2] (setting [6]) was greater than 200 µM each time.
For `O=C(O)c1ccccc1Sc1ccc(SC2CCCCC2)[n+]([O-])n1` [compound 46], the CC50 in data set [1] (setting [5]) and in data set [2] (setting [6]) was greater than 200 µM in each case.
On to `O=S(=O)(CCO)c1ccc(S(=O)(=O)C2CCCCC2)[n+]([O-])n1` [compound 47], for which the CC50 in data set [1] (setting [5]) and in data set [2] (setting [6]) was greater than 200 µM each time.
Regarding `COC(=O)CCS(=O)(=O)c1ccc(S(=O)(=O)C2CCCCC2)[n+]([O-])n1` [compound 48], the CC50 in data set [1] (setting [5]) is less than 50 µM; in data set [2] (setting [6]), greater than 200 µM.
Regarding `Cc1ccc(S(=O)(=O)c2ccc(S(=O)(=O)C3CCCCC3)[n+]([O-])n2)cc1` [compound 49], the CC50 is 50 to 200 µM in data set [1] (setting [5]) and greater than 200 µM in data set [2] (setting [6]).
For the compound `O=S(=O)(c1ccc(O)cc1)c1ccc(S(=O)(=O)C2CCCCC2)[n+]([O-])n1` [compound 50], the CC50 is 50 to 200 µM in data set [1] (setting [5]) and greater than 200 µM in data set [2] (setting [6]).
Taken in the same sequence, the figures for `CC(=O)Oc1ccc(S(=O)(=O)c2ccc(S(=O)(=O)C3CCCCC3)[n+]([O-])n2)cc1` [compound 51] were 50 to 200 µM and greater than 200 µM.
With `O=S(=O)(c1cc[n+]([O-])cc1)c1ccc(S(=O)(=O)C2CCCCC2)[n+]([O-])n1` [compound 53], the figures for the CC50 in data set [1] (setting [5]) and in data set [2] (setting [6]) were 50 to 200 µM and greater than 200 µM, respectively.
For the compound `[O-][n+]1nc(Sc2ccccc2)ccc1Sc1ccccc1` [pyridazine, 3,6-bis(phenylthio)-, 1-oxide], the CC50 in data set [1] (setting [3]) came to 58.9 µM.
